Laboratory results from US7704995B2 (Exelixis, Inc., priority 2003, dated 2010).

Molecular target: T1, Chk1 (Homo sapiens, UniProt O14757)
T1 construct: purchased Upstate Biotechnology
T1 sequence (O14757 1-476): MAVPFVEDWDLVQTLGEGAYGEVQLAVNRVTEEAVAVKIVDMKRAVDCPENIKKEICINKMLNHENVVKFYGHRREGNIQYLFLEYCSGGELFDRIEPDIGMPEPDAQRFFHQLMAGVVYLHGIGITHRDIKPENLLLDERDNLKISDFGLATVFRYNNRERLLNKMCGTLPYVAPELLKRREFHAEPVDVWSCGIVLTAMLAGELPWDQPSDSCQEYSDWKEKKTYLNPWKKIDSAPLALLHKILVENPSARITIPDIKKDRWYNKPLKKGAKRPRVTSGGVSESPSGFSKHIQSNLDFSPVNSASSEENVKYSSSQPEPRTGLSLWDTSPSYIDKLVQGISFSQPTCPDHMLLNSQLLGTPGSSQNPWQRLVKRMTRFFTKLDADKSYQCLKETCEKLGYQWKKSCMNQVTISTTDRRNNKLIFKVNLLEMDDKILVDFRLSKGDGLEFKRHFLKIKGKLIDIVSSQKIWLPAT
Test: Chk1 kinase assay: incorporation of γ-33P ATP into immobilized myelin basic protein
Format: biochemical
Conditions: read-out: Chk1 IC50
Description: Chk1 and Chk2 assays were performed by measuring incorporation of γ-^33P ATP into immobilized myelin basic protein (MBP). High binding white 384 well plates (Greiner) were coated with MBP (Sigma #M-1891) by incubation of 60 ul/well of 20 μg/ml MBP in Tris-buffered saline (TBS; 50 mM Tris pH 8.0, 138 mM NaCl, 2.7 mM KCl) for 24 hours at 4° C. Plates were washed 3× with 100 μl TBS. Kinase reactions were carried out in a total volume of 34 μl in kinase buffer (5 mM Hepes pH 7.6, 15 mM NaCl, 0.01% bovine gamma globulin (Sigma #I-5506), 10 mM MgCl2, 1 mM DTT, 0.02% TritonX-100). Compound dilutions were performed in DMSO and added to assay wells to a final DMSO concentration of 1%. Each data point was measured in duplicate, and at least two duplicate assays were performed for each individual compound determination. Chk1 and Chk2 enzymes (Upstate Biotechnology) were added to final concentrations of 10 nM (Chk1) or 20 nM (Chk2). A mixture of unlabeled ATP and γ-^33P ATP was added to start the reaction (2×10^6 cpm of γ-^33P ATP per well (3000 Ci/mmole) and either 10 μM or 30 μM unlabeled ATP (for Chk1 and Chk2 assays respectively). The reaction was carried out for 1 hour at room temperature with shaking. Plates were washed 7× with TBS, followed by the addition of 50 μl/well scintillation fluid (Wallac). Plates were read using a Wallac Trilux counter. This is only one format of such assays, various other formats are possible, as known to those skilled in the art.
The above assay procedure can be used to determine the IC50 for inhibition and/or the inhibition constant Ki. The IC50 is defined as the concentration of compound required to reduce the enzyme activity by 50% under the conditions of the assay. […] The Ki for a compound may be determined from the IC50 based on three assumptions. First, only one compound molecule binds to the enzyme and there is no cooperativity. […] Third, the enzymatic rate of the enzyme-inhibitor complex is zero. The rate (i.e., compound concentration) data are fitted to the equation: […]

Structure (SMILES) | IC50 [µM]
CNC(=O)c1nc(-c2cccc(C(=O)NCc3cccc(Cl)c3)c2)cnc1N [Example 125, 3-amino-6-[3-({[(3-chlorophenyl)methyl]amino}carbonyl)phenyl]-N-methylpyrazine-2-carboxamide] | 0.05 to 1
CNC(=O)c1nc(-c2cccc(C(=O)NCC3CCCCC3)c2)cnc1N [Example 126, 3-amino-6-(3-{[(cyclohexylmethyl)amino]carbonyl}phenyl)-N-methylpyrazine-2-carboxamide] | 0.05 to 1
CNC(=O)c1nc(-c2cccc(C(=O)NCC(C)c3ccccc3)c2)cnc1N (stereo not shown) [Example 127, 3-amino-N-methyl-6-(3-{[(2-phenylpropyl)amino]carbonyl}phenyl)pyrazine-2-carboxamide] | 0.05 to 1
CNC(=O)c1nc(-c2cccc(C(=O)NCc3ccccc3Cl)c2)cnc1N [Example 128, 3-amino-6-[3-({[(2-chlorophenyl)methyl]amino}carbonyl)phenyl]-N-methylpyrazine-2-carboxamide] | 0.05 to 1
CNC(=O)c1nc(-c2cccc(C(=O)NCCc3ccccc3Cl)c2)cnc1N [Example 129, 3-amino-6-[3-({[2-(2-chlorophenyl)ethyl]amino}carbonyl)phenyl]-N-methylpyrazine-2-carboxamide] | 0.05 to 1
CNC(=O)c1nc(-c2cccc(C(=O)NCCc3ccccc3OC)c2)cnc1N [Example 130, 3-amino-N-methyl-6-{3-[({2-[2-(methyloxy)phenyl]ethyl}amino)carbonyl]phenyl}pyrazine-2-carboxamide] | 0.05 to 1
CNC(=O)c1nc(-c2cccc(C(=O)NCCc3ccc(F)cc3)c2)cnc1N [Example 131, 3-amino-6-[3-({[2-(4-fluorophenyl)ethyl]amino}carbonyl)phenyl]-N-methylpyrazine-2-carboxamide] | 0.05 to 1
CNC(=O)c1nc(-c2cccc(C(=O)NCCc3cccs3)c2)cnc1N [Example 132, 3-amino-N-methyl-6-[3-({[2-(2-thienyl)ethyl]amino}carbonyl)phenyl]pyrazine-2-carboxamide] | 0.05 to 1
CNC(=O)c1nc(-c2cccc(C(=O)NC3CCCCC3)c2)cnc1N [Example 133, 3-amino-6-{3-[(cyclohexylamino)carbonyl]phenyl}-N-methylpyrazine-2-carboxamide] | 1 to 10
CNC(=O)c1nc(-c2cccc(C(=O)NCC3CCN(C(=O)OC(C)(C)C)CC3)c2)cnc1N [Example 134, 1,1-dimethylethyl 4-({[(3-{5-amino-6-[(methylamino)carbonyl]pyrazin-2-yl}phenyl)carbonyl]amino}methyl)piperidine-1-carboxylate] | 0.05 to 1
CNC(=O)c1nc(-c2cccc(C(=O)NCC3CCNCC3)c2)cnc1N [Example 135, 3-amino-N-methyl-6-(3-{[(piperidin-4-ylmethyl)amino]carbonyl}phenyl)pyrazine-2-carboxamide] | 0.05 to 1
CNC(=O)c1nc(-c2cccc(-c3noc(-c4ccccc4)n3)c2)cnc1N [Example 136, 3-amino-N-methyl-6-[3-(5-phenyl-1,2,4-oxadiazol-3-yl)phenyl]pyrazine-2-carboxamide] | 1 to 10
CNC(=O)c1nc(-c2cccc(-c3noc(Cc4ccccc4)n3)c2)cnc1N [Example 137, 3-amino-N-methyl-6-{3-[5-(phenylmethyl)-1,2,4-oxadiazol-3-yl]phenyl}pyrazine-2-carboxamide] | 1 to 10
CNC(=O)c1nc(-c2cccc(-c3noc(CCc4ccccc4)n3)c2)cnc1N [Example 138, 3-amino-N-methyl-6-{3-[5-(2-phenylethyl)-1,2,4-oxadiazol-3-yl]phenyl}pyrazine-2-carboxamide] | 1 to 10
CNC(=O)c1nc(-c2cccc(C(=O)NC(C)(C)C)c2)cnc1N [Example 139, 3-amino-6-(3-{[(1,1-dimethylethyl)amino]carbonyl}phenyl)-N-methylpyrazine-2-carboxamide] | 1 to 10
CNC(=O)c1nc(-c2cccc(C(=O)N[C@@H]3c4ccccc4C[C@@H]3O)c2)cnc1N [Example 140, 3-amino-6-[3-({[(1R,2S)-2-hydroxy-2,3-dihydro-1H-inden-1-yl]amino}carbonyl)phenyl]-N-methylpyrazine-2-carboxamide] | 0.05 to 1

Structure (SMILES) | IC50 [µM]
CNC(=O)c1nc(-c2cccc(C(=O)N[C@H]3c4ccccc4C[C@H]3O)c2)cnc1N [Example 141, 3-amino-6-[3-({[(1S,2R)-2-hydroxy-2,3-dihydro-1H-inden-1-yl]amino}carbonyl)phenyl]-N-methylpyrazine-2-carboxamide] | 1 to 10
CNC(=O)c1nc(-c2cccc(C(=O)Nc3ccccc3)c2)cnc1N [Example 142, 3-amino-N-methyl-6-{3-[(phenylamino)carbonyl]phenyl}pyrazine-2-carboxamide] | 1 to 10
CNC(=O)c1nc(-c2cccc(C(=O)N3Cc4ccccc4C3)c2)cnc1N [Example 143, 3-amino-6-[3-(1,3-dihydro-2H-isoindol-2-ylcarbonyl)phenyl]-N-methylpyrazine-2-carboxamide] | 1 to 10
CNC(=O)c1nc(-c2cccc(C(=O)N[C@H](C)c3ccccc3)c2)cnc1N [Example 144, 3-amino-N-methyl-6-[3-({[(1R)-1-phenylethyl]amino}carbonyl)phenyl]pyrazine-2-carboxamide] | 1 to 10
CNC(=O)c1nc(-c2cccc(C(=O)N[C@@H](C)c3ccccc3)c2)cnc1N [Example 145, 3-amino-N-methyl-6-[3-({[(1S)-1-phenylethyl]amino}carbonyl)phenyl]pyrazine-2-carboxamide] | 0.05 to 1
CC[C@@H](NC(=O)c1cccc(-c2cnc(N)c(C(=O)NC)n2)c1)c1ccccc1 [Example 146, 3-amino-N-methyl-6-[3-({[(1R)-1-phenylpropyl]amino}carbonyl)phenyl]pyrazine-2-carboxamide] | 1 to 10
CC[C@H](NC(=O)c1cccc(-c2cnc(N)c(C(=O)NC)n2)c1)c1ccccc1 [Example 147, 3-amino-N-methyl-6-[3-({[(1S)-1-phenylpropyl]amino}carbonyl)phenyl]pyrazine-2-carboxamide] | 1 to 10
CNC(=O)c1nc(-c2cccc(C(=O)N[C@@H]3C[C@H]3c3ccccc3)c2)cnc1N [Example 148, 3-amino-N-methyl-6-[3-({[(1R,2S)-2-phenylcyclopropyl]amino}carbonyl)phenyl]pyrazine-2-carboxamide] | 0.05 to 1
CNC(=O)c1nc(-c2ccc(C(=O)OCc3ccccc3)cc2)cnc1N [Example 149, phenylmethyl 4-{5-amino-6-[(methylamino)carbonyl]pyrazin-2-yl}benzoate] | ≥ 10
CNC(=O)c1nc(-c2ccc(C(=O)NCc3ccccc3)cc2)cnc1N [Example 150, 3-amino-N-methyl-6-(4-{[(phenylmethyl)amino]carbonyl}phenyl)pyrazine-2-carboxamide] | 1 to 10
CNC(=O)c1nc(-c2ccc(C(=O)NCCc3ccccc3)cc2)cnc1N [Example 151, 3-amino-N-methyl-6-(4-{[(2-phenylethyl)amino]carbonyl}phenyl)pyrazine-2-carboxamide] | 0.05 to 1
CNC(=O)c1nc(-c2ccc(C(=O)NCc3ccc(Cl)cc3Cl)cc2)cnc1N [Example 152, 3-amino-6-[4-({[(2,4-dichlorophenyl)methyl]amino}carbonyl)phenyl]-N-methylpyrazine-2-carboxamide] | 0.05 to 1
CNC(=O)c1nc(-c2ccc(C(=O)NCc3ccc(C)cc3)cc2)cnc1N [Example 153, 3-amino-N-methyl-6-[4-({[(4-methylphenyl)methyl]amino}carbonyl)phenyl]pyrazine-2-carboxamide] | 0.05 to 1
CNC(=O)c1nc(-c2ccc(C(=O)N[C@H]3CCc4ccccc43)cc2)cnc1N [Example 154, 3-amino-6-(4-{[(1S)-2,3-dihydro-1H-inden-1-ylamino]carbonyl}phenyl)-N-methylpyrazine-2-carboxamide] | 0.05 to 1
CNC(=O)c1nc(-c2cccc(NC(=O)Cc3ccc(Cl)cc3)c2)cnc1N [Example 155, 3-amino-6-(3-{[(4-chlorophenyl)acetyl]amino}phenyl)-N-methylpyrazine-2-carboxamide] | 0.05 to 1
